Data: patent US5618791A, “Memory enhancing peptides” (Shanghai Institute of Biochemistry, priority 1992, dated 1997)
Square brackets hold non-standard residues; d marks the D form. Ends that are not written are not given here. Peptide text beside a SMILES is read from it. pGlu = O=C1CC[C@@H](C(=O)O)N1; Hme = not defined here

Tests used:
adult rats [1] = conditions: cited from earlier work
adult rats [2] = test: Passive avoidance response of adult rats, step-through one trial learning test in a shuttle box; assay type: in vivo
Experimental: (§1) Biological activities of MEPs of the invention are confirmed by bioassay. Blood pressure measurements and urine output measurements were performed on adult rats after intravenous administration of MEPs under ether anesthesia. Passive avoidance behavior of adult rats was carried out in a step-through one trial learning test in a shuttle box, and brightness discrimination tests were performed in a radiant Y maze. Rats neonatally administered with MEPs of the invention were trained during an immature period and subsequently tested as adults.
(§2) Memory enhancing responses were assessed by two kinds of behavioral records, i.e., passive avoidance response of adult rats in a shuttle box and the performance in a radiant Y maze in the acquisition and retention of brightness discrimination of rats neonatally administered. The results are set out in Table I. All MEPs of the invention show significant positive behavioral responses when rats have received a subcutaneous administration of MEP within the dosage range 1 ng-1 μg per animal. MEPs of the invention show a memory enhancing potency 10-100 times that of AVP.

rats = test: Brightness discrimination test in a radiant Y maze; assay type: in vivo, rat; conditions: adult rats; oral 20 μg/kg/day for 30 days
Experimental: as §1, §2
Additionally, oral administration of NLPR to adult rats at a dose of 20 μg/kg/day for 30 days produced a positive brightness discrimination assay.

| Compound | acquisition of active or passive avoidance responses (adult rats [1]) | extinction of active or passive avoidance responses (adult rats [1]) | Passive Avoidance adult rat effective dose (adult rats [2]) | brightness discrimination assay (rats) |
| --- | --- | --- | --- | --- |
| NC(=O)CC[C@@H]1NC(=O)[C@H](Cc2ccccc2)NC(=O)[C@H](Cc2ccc(O)cc2)NC(=O)[C@@H](N)CSSC[C@@H](C(=O)N2CCC[C@H]2C(=O)N[C@@H](CCCN=C(N)N)C(=O)NCC(N)=O)NC(=O)[C@H](CC(N)=O)NC1=O [AVP, arginine vasopressin] | no effect | retarded | 300-1000 ng/200 g body wt. | – |
| CC(=O)N[C@@H](CC(N)=O)C(=O)N[C@@H](CC(C)C)C(=O)N1CCC[C@H]1C(=O)N[C@@H](CCCNC(=N)N)C(N)=O [AcNLPR--NH2] (Ac-NLPR-NH2) | – | – | 3-10 ng/200 g body wt. | – |
| CC(C)C[C@H](NC(=O)[C@@H](N)CC(N)=O)C(=O)N1CCC[C@H]1C(=O)N[C@@H](CCCNC(=N)N)C(=O)O [NLPR] (H-NLPR-OH) | – | – | 3-10 ng/200 g body wt. | positive |
| CC(C)C[C@H](NC(=O)[C@H](CC(N)=O)NC(=O)[C@@H]1CCC(=O)N1)C(=O)N1CCC[C@H]1C(=O)N[C@@H](CCCNC(=N)N)C(=O)O [ZNLPR] ([pGlu]NLPR-OH) | – | – | 10 ng/200 g body wt. | – |
| ZN(Hme)PR: pyroglutamyl-Asn-Hme-Pro-Arg; Hme = Homomethionine (Smethylcysteine) ([pGlu]N[Hme]PR; reading uncertain; also: printed as ZN(Hme)PR) | – | – | 10-100 ng/200 g body wt. | – |
